Target: T1, human recombinant mGluR5 (Homo sapiens, UniProt P41594)
T1 construct: expressed in transfected cells; host or cells: HEK 293 cell line; cultured with tetracycline, hygromycin and geneticin; tetracycline withdrawn 3-7 days before the assay
Test: positive modulation of mGluR5, calcium based FLIPR assay in HEK 293 cells
Conditions: HEK 293 cell line expressing human recombinant mGluR5; peak height of Ca release fluorescence signal after glutamate at approximately 5% basal stimulation; nonlinear regression
Method in brief: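 HEK 293 cells expressing human mGluR5, tetracycline-free 3-7 days, Calcium-4 dye-loaded in Ringer solution pH 7.4; 1% DMSO final. Compound added 5 min before glutamate at ~5% of maximal effect; peak Ca2+ fluorescence normalized to basal glutamate (100%) and 10 μM CDPPB (200%); EC50 by nonlinear regression.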

T1 sequence (P41594 21-1212): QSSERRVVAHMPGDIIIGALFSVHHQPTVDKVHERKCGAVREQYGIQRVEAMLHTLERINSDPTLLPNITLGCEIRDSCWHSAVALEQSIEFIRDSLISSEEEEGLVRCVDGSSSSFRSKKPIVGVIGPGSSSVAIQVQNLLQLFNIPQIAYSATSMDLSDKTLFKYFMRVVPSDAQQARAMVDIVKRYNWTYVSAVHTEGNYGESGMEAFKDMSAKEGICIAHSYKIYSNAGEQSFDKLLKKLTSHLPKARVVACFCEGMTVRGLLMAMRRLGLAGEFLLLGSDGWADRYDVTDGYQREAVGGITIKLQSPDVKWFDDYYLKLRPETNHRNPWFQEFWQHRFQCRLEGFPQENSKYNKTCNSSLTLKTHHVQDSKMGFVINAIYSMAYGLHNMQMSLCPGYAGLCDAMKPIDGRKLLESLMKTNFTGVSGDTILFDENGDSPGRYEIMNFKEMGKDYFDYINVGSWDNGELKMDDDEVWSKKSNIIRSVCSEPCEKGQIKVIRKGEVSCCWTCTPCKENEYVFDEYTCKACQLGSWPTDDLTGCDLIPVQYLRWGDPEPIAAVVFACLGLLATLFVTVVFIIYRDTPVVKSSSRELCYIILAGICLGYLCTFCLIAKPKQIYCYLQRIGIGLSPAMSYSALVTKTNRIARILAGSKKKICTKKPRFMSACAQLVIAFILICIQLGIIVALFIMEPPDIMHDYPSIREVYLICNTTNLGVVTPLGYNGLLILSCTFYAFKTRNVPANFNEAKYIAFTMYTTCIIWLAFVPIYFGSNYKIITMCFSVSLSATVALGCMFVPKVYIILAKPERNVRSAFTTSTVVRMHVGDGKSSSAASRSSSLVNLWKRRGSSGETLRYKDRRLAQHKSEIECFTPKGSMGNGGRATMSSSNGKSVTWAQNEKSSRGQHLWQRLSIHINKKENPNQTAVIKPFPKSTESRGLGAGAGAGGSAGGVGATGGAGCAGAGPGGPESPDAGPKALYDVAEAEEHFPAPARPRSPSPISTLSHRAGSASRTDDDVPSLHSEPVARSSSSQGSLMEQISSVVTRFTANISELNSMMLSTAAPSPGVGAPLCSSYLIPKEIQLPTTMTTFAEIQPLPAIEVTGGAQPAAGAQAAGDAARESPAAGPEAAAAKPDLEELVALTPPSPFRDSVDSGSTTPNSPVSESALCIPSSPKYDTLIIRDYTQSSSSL

| Structure (SMILES) | EC50 |
| --- | --- |
| CCc1cc(-c2ccc(F)cc2)nn1CC(=O)N1CCN(c2ncc(OC)cn2)CC1 [Example 7.01.76] | 388 nM |
| COCc1cc(-c2ccc(F)c(C)c2)nn1CC(=O)N1CCN(c2ncnc3[nH]cnc23)CC1 [Example 7.02.20] | 183 nM |
| O=C(Cn1nc(-c2ccccc2)cc1-c1ccccc1)N1CCN(c2ncncn2)CC1 [Example 7.02.14] | 129 nM |
| COc1cccc(-c2cc(C3CCCCC3)n(CC(=O)N3CCN(c4ccccn4)CC3)n2)c1 [Example 7.01.18] | 285 nM |
| COc1cnc(N2CCN(C(=O)Cn3nc(-c4cccc(C#N)c4)cc3-c3ccccc3)CC2)nc1 [Example 7.01.169] | 11 nM |
| COc1ccnc(N2CCN(C(=O)Cn3nc(-c4ccc(F)c(C)c4)cc3C3CC3)CC2)c1 [Example 7.01.46] | 333 nM |
| CCc1cc(-c2ccc(C)c(C)c2)nn1CC(=O)N1CCN(c2cc(OC)ccn2)CC1 [Example 7.01.92] | 302 nM |
| COc1ccc(-c2cc(-c3ccc(OC)cc3)n(CC(=O)N3CCN(c4ncccn4)CC3)n2)cc1 [Example 7.03.01] | 31 nM |
| COc1ccnc(N2CCN(C(=O)Cn3nc(-c4ccc(F)c(C)c4)cc3C(C)C)CC2)c1 [Example 7.01.25] | 112 nM |
| COc1cc(N2CCN(C(=O)Cn3nc(-c4ccc(F)cn4)cc3-c3ccccc3)CC2)ncn1 [Example 7.01.61] | 246 nM |
| COc1cc(N2CCN(C(=O)Cn3nc(-c4ccc(F)c(C)c4)cc3CC(C)C)CC2)ncn1 [Example 7.01.121] | 34 nM |
| COc1cc(N2CCN(C(=O)Cn3nc(-c4ccc(F)c(C)c4)cc3C)CC2)ncn1 [Example 7.02.23] | 60 nM |
| COc1cc(N2CCN(C(=O)Cn3nc(-c4cc(C)c(F)cn4)cc3-c3ccccc3)CC2)ncn1 [Example 7.01.159] | 39 nM |
| Cc1cc(-c2cc(-c3ccccc3)n(CC(=O)N3CCN(c4cc(OCCN5CCOCC5)ncn4)CC3)n2)ccc1F [Example 7.05.01, 2-[3-(4-fluoro-3-methyl-phenyl)-5-phenyl-pyrazol-1-yl]-1-{4-[6-(2-morpholin-4-yl-ethoxy)-pyrimidin-4-yl]-piperazin-1-yl}-ethanone] | 40 nM |
| O=C(Cn1nc(-c2ccccc2)cc1-c1ccccc1)N1CCN(c2ccc(Cl)cn2)CC1 [Example 7.01.09] | 373 nM |
| COc1cc(-c2cc(C(C)C)n(CC(=O)N3CCN(c4ccccn4)CC3)n2)ccc1F [Example 7.01.49] | 1060 nM |
| O=C(Cn1nc(-c2ccc(OC(F)F)cc2)cc1-c1ccccc1)N1CCN(c2ncccn2)CC1 [Example 7.01.174] | 3 nM |
| CCc1cccc(-c2cc(CC)n(CC(=O)N3CCN(c4ncccn4)CC3)n2)c1 [Example 7.01.131] | 59 nM |
| COc1cc(-c2cc(-c3ccccc3)n(CC(=O)N3CCN(c4ccccn4)CC3)n2)ccc1F [Example 7.01.151] | 19 nM |
| O=C(Cn1nc(-c2ccc(F)cn2)cc1-c1ccccc1)N1CCN(c2ncccn2)CC1 [Example 7.01.57] | 81 nM |
| CCc1cc(-c2cccc(Cl)c2)nn1CC(=O)N1CCN(c2ccccn2)CC1 [Example 7.01.114] | 153 nM |
| COC(=O)c1ccc(-c2cc(-c3ccccc3)n(CC(=O)N3CCN(c4ncccn4)CC3)n2)cc1 [Example 7.04.03] | 392 nM |
| O=C(Cn1nc(-c2ccc(F)cn2)cc1-c1ccc(F)cc1)N1CCN(c2cccnn2)CC1 [Example 7.01.64] | 677 nM |
| Cc1cc(-c2cc(C3CCCCC3)n(CC(=O)N3CCN(c4ccccn4)CC3)n2)ccc1F [Example 7.01.35] | 213 nM |
| CCc1cc(-c2ccc(F)c(C)c2)nn1CC(=O)N1CCN(c2ccccn2)CC1 [Example 7.01.69] | 79 nM |
| COc1cc(N2CCN(C(=O)Cn3nc(-c4ccc(F)c(OC)c4)cc3C(C)C)CC2)ncn1 [Example 7.01.47] | 447 nM |
| CCCc1cc(-c2ccc(F)c(C)n2)nn1CC(=O)N1CCN(c2ccccn2)CC1 [Example 7.01.186] | 441 nM |
| Cc1cc(-c2cc(C3CC3)n(CC(=O)N3CCN(c4ncccn4)CC3)n2)ccc1F [Example 7.01.42] | 101 nM |
| Cc1cc(-c2cc(-c3ccccc3)n(CC(=O)N3CCN(c4cccnn4)CC3)n2)ccc1F [Example 7.01.02] | 9 nM |

Other lines, results leading:

| EC50 | Structure (SMILES) |
| --- | --- |
| 85 nM | O=C(Cn1nc(-c2ccccc2)cc1-c1ccccc1)N1CCN(c2cnccn2)CC1 [Example 7.02.05] |
| 61 nM | CCc1cc(-c2ccc(F)c(C)c2)nn1CC(=O)N1CCN(c2cc(OC)ncn2)CC1 [Example 7.01.67] |
| 183 nM | COc1ccc(-c2cc(C(C)C)n(CC(=O)N3CCN(c4ccccn4)CC3)n2)cc1 [Example 7.01.20] |
| 434 nM | CCc1cc(-c2ccc(C)c(F)c2)nn1CC(=O)N1CCN(c2ccccn2)CC1 [Example 7.01.182] |
| 205 nM | COc1ccc(-c2cc(C(C)C)n(CC(=O)N3CCN(c4ncccn4)CC3)n2)cc1C [Example 7.01.54] |
| 349 nM | O=C(Cn1nc(-c2ccccc2)cc1-c1ccccc1)N1CCN(c2ccncn2)CC1 [Example 7.01.08] |
| 44 nM | Cc1cc(-c2cc(-c3ccccc3)nn2CC(=O)N2CCN(c3ncccn3)CC2)ccc1F [Example 7.01.05] |
| 696 nM | O=C(Cn1nc(-c2ccccc2)cc1-c1ccccc1)N1CCN(c2cc(C(F)(F)F)ccn2)CC1 [Example 7.02.13] |
| 987 nM | COc1cnnc(N2CCN(C(=O)Cn3nc(-c4ccc(F)c(C)c4)cc3C(C)C)CC2)c1 [Example 7.01.30] |
| 8 nM | Cc1ccc(-c2cc(-c3ccccc3)n(CC(=O)N3CCN(c4ncccn4)CC3)n2)nc1C [Example 7.01.124] |
| 490 nM | CCc1cc(-c2cccc(C#N)c2)nn1CC(=O)N1CCN(c2cc(OC)ncn2)CC1 [Example 7.01.163] |
| 11 nM | COc1cc(N2CCN(C(=O)Cn3nc(-c4ccc(F)c(C)c4)cc3-c3ccccc3)CC2)ncn1 [Example 7.01.03] |
| 182 nM | COCc1cc(-c2ccc(F)c(C)c2)nn1CC(=O)N1CCN(c2cc(OC)ccn2)CC1 [Example 7.02.17] |
| 46 nM | O=C(Cn1nc(-c2ccc(OC(F)F)cn2)cc1-c1ccccc1)N1CCN(c2ccccn2)CC1 [Example 7.01.179] |
| 63 nM | CCc1cc(-c2ccc(F)c(C)c2)nn1CC(=O)N1CCN(c2ncc(F)cn2)CC1 [Example 7.01.72] |
| 99 nM | Cc1cc(-c2cc(-c3ccccc3)nn2CC(=O)N2CCN(c3ccccn3)CC2)ccc1F [Example 7.01.06] |
| 250 nM | CCc1cc(-c2cccc(C#N)c2)nn1CC(=O)N1CCN(c2ncccn2)CC1 [Example 7.01.160] |
| 211 nM | COCc1cc(-c2ccc(F)c(C)c2)nn1CC(=O)N1CCN(c2cc(OC)ncn2)CC1 [Example 7.02.18] |
| 81 nM | O=C(Cn1nc(C2CCCCC2)cc1-c1ccc(F)cc1)N1CCN(c2ncccn2)CC1 [Example 7.04.02] |
| 276 nM | COc1cc(-c2cc(-c3ccccc3)nn2CC(=O)N2CCN(c3ncccn3)CC2)ccc1F [Example 7.01.153] |
| 27 nM | Cc1ccc(-c2cc(-c3ccccc3)n(CC(=O)N3CCN(c4ncccn4)CC3)n2)cc1F [Example 7.01.188] |
| 118 nM | O=C(Cn1nc(-c2ccc(F)cn2)cc1-c1ccc(F)cc1)N1CCN(c2ccccn2)CC1 [Example 7.01.59] |
| 5 nM | COc1cc(-c2cc(-c3ccccc3)n(CC(=O)N3CCN(c4ncccn4)CC3)n2)ccc1F [Example 7.01.150] |
| 7 nM | N#Cc1cccc(-c2cc(-c3ccccc3)n(CC(=O)N3CCN(c4ncccn4)CC3)n2)c1 [Example 7.01.167] |

From patent publication US8822464B2, “N-aryl-piperazine derivatives and their use as positive allosteric modulators of mGluR5 receptors” (Boehringer Ingelheim International GmbH, priority 2011, dated 2014)
